Patent US7678773B2, “Salts of avermectins substituted in the 4″-position and having pesticidal properties” (Merial Limited, priority 2001, dated 2010)
Read-outs that look alike come from different tables or passages of the source.

Experiments:
Format in all cases: in vivo
Spodoptera littoralis = test: Example B1: Action against Spodoptera littoralis (sprayed soybean plants); conditions: 72 h, read-out: reduction in the pest population (% activity)
Description: Young soybean plants are sprayed with an aqueous emulsion spray mixture comprising 12.5 ppm of test compound and, after the spray-coating has dried, the plants are populated with 10 caterpillars of Spodoptera littoralis in the first stage and then placed in a plastics container. 3 days later, the percentage reduction in population and the percentage reduction in feeding damage (% activity) are determined by comparing the number of dead caterpillars and the feeding damage on the treated plants with that on untreated plants.

Plutella xylostella = test: Example B4: Action against Plutella xylostella caterpillars (sprayed cabbage plants); conditions: 72 h, read-out: reduction in the pest population (% activity)
Description: Young cabbage plants are sprayed with an aqueous emulsion spray mixture comprising 12.5 ppm of test compound. After the spray-coating has dried, the cabbage plants are populated with 10 caterpillars of Plutella xylostella in the first stage and placed in a plastics container. Evaluation is made 3 days later. The percentage reduction in population and the percentage reduction in feeding damage (% activity) are determined by comparing the number of dead caterpillars and the feeding damage on the treated plants with that on the untreated plants.

Diabrotica balteata = test: Example B6: Action against Diabrotica balteata (sprayed maize seedlings); conditions: 144 h, read-out: reduction in the pest population (% activity)
Description: Maize seedlings are sprayed with an aqueous emulsion spray mixture comprising 12.5 ppm of the test compound and, after the spray-coating has dried, the maize seedlings are populated with 10 Diabrotica balteata larvae in the second stage and then placed in a plastics container. 6 days later, the percentage reduction in population (% activity) is determined by comparing the number of dead larvae on the treated plants with that on untreated plants.

Tetranychus urticae = test: Example B7: Action against Tetranychus urticae (sprayed bean plants); conditions: 144 h, read-out: reduction in the pest population (% activity)
Description: Young bean plants are populated with a mixed population of Tetranychus urticae and sprayed one day later with an aqueous emulsion spray mixture comprising 12.5 ppm of test compound. The plants are incubated for 6 days at 25° C. and subsequently evaluated. The percentage reduction in population (% activity) is determined by comparing the number of dead eggs, larvae and adults on the treated plants with that on untreated plants.

[1] = 12.5 ppm spray on young soybean plants, first-stage caterpillars, evaluated 3 days later vs untreated plants
[2] = 12.5 ppm spray on young cabbage plants, first-stage caterpillars, evaluated 3 days later
[3] = 12.5 ppm spray on maize seedlings, second-stage larvae, evaluated 6 days later
[4] = 12.5 ppm spray on young bean plants, mixed population, 6 days at 25° C.

Measured: inhibition at 12.5 ppm

O=C(O)c1ccccc1-c1ccccc1 [B.11, 2-phenyl-benzoic acid]
> 80%: Spodoptera littoralis; [1] | Plutella xylostella; [2] | Diabrotica balteata; [3] | Tetranychus urticae; [4]

Cc1ccc(C(=O)O)cc1 [B.32, p-toluic acid]
> 80%: Spodoptera littoralis; [1] | Plutella xylostella; [2] | Diabrotica balteata; [3] | Tetranychus urticae; [4]

O=C(O)c1cccc(F)c1 [B.41, 3-fluoro-benzoic acid]
> 80%: Spodoptera littoralis; [1] | Plutella xylostella; [2] | Diabrotica balteata; [3] | Tetranychus urticae; [4]

Cc1ccc(C)c(C(=O)O)c1 [B.44, 2,5-dimethyl-benzoic acid]
> 80%: Spodoptera littoralis; [1] | Plutella xylostella; [2] | Diabrotica balteata; [3] | Tetranychus urticae; [4]

O=C(O)CCCOc1ccccc1 [B.70, 4-phenoxy-butyric acid]
> 80%: Spodoptera littoralis | Plutella xylostella | Diabrotica balteata | Tetranychus urticae

CC(C)(C)c1ccc(C(=O)O)cc1 [B.71, 4-tert-butyl-benzoic acid]
> 80%: Spodoptera littoralis; [1] | Plutella xylostella; [2] | Diabrotica balteata; [3] | Tetranychus urticae; [4]

O=C(O)c1ccc(O)cc1O [B.82, 2,4-dihydroxy-benzoic acid]
> 80%: Spodoptera littoralis; [1] | Plutella xylostella; [2] | Diabrotica balteata; [3] | Tetranychus urticae; [4]
